The values below come from patent US7632871B2, “Methods of making and methods of using antiseptic disinfectant, cosmetic and toiletries, medicine or food containing the same” (Mandom Corporation, priority 2002, dated 2009).

Holding throughout (assay type): cell-based
In one assay the test system is Candida albicans IFO1594. Put plainly: Dual minimum inhibitory concentration (agar dilution MIC) of 1,2-octanediol combined with a fragrance component, Candida albicans. To be noted: fragrance component combined with 1,2-octanediol (50:50 by weight mixture); agar medium, 25° C., growth judged after three days. The procedure:
(§1) Candida albicans IFO1594 (mycotic stomatitis), Staphylococcus aureus IF013276 (Staphylococcus aureus), and Pseudomonas aeruginosa IF013275 (Pseudomonas) are used as sample bacterias.
As to yeast (Candida albicans), the inoculating bacteria is prepared by incubating the yeast in the same way as Staphylococcus aureus and Pseudomonas at 30° C. and diluting the yeast to about 10^7 cell/ml.
(§2) With a dilution solvent of ethyl cellosolve of 20 w/w %, 1,2-octanediol solution of 5, 4, 3, 2.5, 2.25, 2, 1.75, 1.5, 1.25 and 1 w/v % are prepared.
(§3) While, as to thymol and the 50:50 by weight mixture of 1,2-octanediol and thymol, the dilution series are prepared by doubling diluting the 20w/v % solution.
(§4) 1 ml of each of the above-mentioned dilution series including the test material and 9 ml of the agar medium are introduced to each schales, and the above-mentioned inoculating bacteria was applied on each of the schales at the length of 1 cm.
(§5) Staphylococcus aureus and Pseudomonas were incubated at 35° C., and it was judged whether or not the bacteria had grown two days later. The yeast was incubated at 25° C., and it was judged whether or not the bacteria had grown three days later.
(§6) Each MIC of the obtained 1,2-octanediol, thymol, and the 50:50 mixture by weight of 1,2-octanediol and thymol corresponding the compounding amount of 1,2-octanediol and thymol is plotted to make out the dual minimum inhibitory concentration. Action and effect in case that two kinds of antibacterial materials are compounded can be judged by the dual minimum inhibitory concentration. More specifically, the actions caused by compounding two antibacterial materials are roughly classified into synergistic action, additive action and counteraction. Synergistic action is the action in that two kinds of agent act synergistically, to enhance the antibacterial activity that the agents originally have. The additive action is the action in that the antibacterial activities of the agents are put together. The counteraction is the action in that one agent cancels the antibacterial activity of the other agent.
(§7) The method using dual minimum inhibitory concentration, as shown in FIG. 1 for example, is the method to measure MICs as to material A and Material B at different proportions of them and to judge the result in view of the graph. In this method, a line is drawn to connect MIC (point A) in using only material A to MIC (point B) in using only material B. When the MIC (point C) in using both materials is inside the line, it is judged to be Synergistic action that antibacterial activity was strengthened by the combined use. When the MIC (point D) is on the line, it can be judged to be the additive action. When the MIC (point E) is in the outside of the line, it is judged to be the counteraction that cancels antibacterial activity of one or both of the materials to decrease the antibacterial activity.
(§8) The antibacterial effect in the case of mixing 1,2-octanediol and thymol was evaluated by the following evaluation criterion from dual minimum inhibitory concentration diagram in FIG. 2.
(In general: In agar dilution the substance is mixed into plates at graded concentrations.)

A further assay deals with Escherichia coli IFO3972. Put plainly: Dual minimum inhibitory concentration (agar dilution MIC) of 1,2-octanediol combined with a fragrance component, Escherichia coli. To be noted: fragrance component combined with 1,2-octanediol (50:50 by weight mixture); same way as Embodiment 1, E. coli instead of P. aeruginosa. Also on record: key: ◯: There is synergistic action in the antibacterial effect.; Δ: There is additive action in the antibacterial effect.; ×: There is counteraction in the antibacterial effect. The protocol:
(§9) For preparing bacteria, as to Staphylococcus aureus and Pseudomonas, they are incubated at 35° C. in the agar medium, and further incubated at 35° C. after transferred into the bouillon medium. The inoculating bacteria is prepared by diluting the obtained culture solution to about 10^8 inoculating cell/ml.
as §2, §3
1 ml of each of the above-mentioned dilution series including the test material and 9 ml of the agar medium are introduced to each schales, and the above-mentioned inoculating bacteria was applied on each of the schales at the length of 1 cm. […]
as §8
Manipulating each of citronellol and β-pinene for fragrance component in the same way as in Embodiment 1 using Escherichia coli IFO3972 instead of Pseudomonas aeruginosa IF013275, each dual minimum inhibitory concentration of FIGS. 6-7 was obtained. […] From the obtained result, the antibacterial effect was evaluated by the above-mentioned evaluation criterion.

Assay [1] concerns Staphylococcus aureus IF013276. Description: Dual minimum inhibitory concentration (agar dilution MIC) of 1,2-octanediol combined with a fragrance component, Staphylococcus aureus. To be noted: fragrance component combined with 1,2-octanediol (50:50 by weight mixture); agar medium, 35° C., growth judged after two days. The protocol: as §1, §9, §2, §3, §4, §5, §6, §7, §8
Assay [2] deals with Pseudomonas aeruginosa IF013275. Description: Dual minimum inhibitory concentration (agar dilution MIC) of 1,2-octanediol combined with a fragrance component, Pseudomonas aeruginosa. To be noted: fragrance component combined with 1,2-octanediol (50:50 by weight mixture); agar medium, 35° C., growth judged after two days. The protocol:
as §1, §9, §2, §3, §4
Staphylococcus aureus and Pseudomonas were incubated at 35° C., and it was judged whether or not the bacteria had grown two days later. […]
as §8

As to `CC(C)=CCCC(C)CCO` (stereo not drawn) [citronellol], the “antibacterial effect of mixing with 1,2-octanediol, judged from dual minimum inhibitory concentration diagram, C. albicans” value in the assay on Candida albicans IFO1594 is given as “∘”. Also, the “antibacterial effect of mixing with 1,2-octanediol, judged from dual minimum inhibitory concentration diagram, E. coli” value with Escherichia coli IFO3972 is “∘”. Further, the “antibacterial effect of mixing with 1,2-octanediol, judged from dual minimum inhibitory concentration diagram, S. aureus” value in assay [1] was “∘”.
`CC(=O)O[C@@H]1C[C@H]2CC[C@]1(C)C2(C)C` (racemic) [isobornyl acetate, reference compound]: the “antibacterial effect of mixing with 1,2-octanediol, judged from dual minimum inhibitory concentration diagram, S. aureus” value in assay [1] is listed as “∘”.
For the molecule `C=C1CCC2CC1C2(C)C` (stereo not drawn) [β-pinene], in the assay with Candida albicans IFO1594, the “antibacterial effect of mixing with 1,2-octanediol, judged from dual minimum inhibitory concentration diagram, C. albicans” value is “∘”. In addition, in the assay with Escherichia coli IFO3972, the “antibacterial effect of mixing with 1,2-octanediol, judged from dual minimum inhibitory concentration diagram, E. coli” value is listed as “Δ”. For the same molecule, the “antibacterial effect of mixing with 1,2-octanediol, judged from dual minimum inhibitory concentration diagram, S. aureus” value in assay [1] is “∘”.
Turning to `C=CCc1ccc(O)c(OC)c1` [Eugenol], the “antibacterial effect of mixing with 1,2-octanediol, judged from dual minimum inhibitory concentration diagram, C. albicans” value with Candida albicans IFO1594 is on record as “∘”. Moreover, the “antibacterial effect of mixing with 1,2-octanediol, judged from dual minimum inhibitory concentration diagram, S. aureus” value in assay [1] is on record as “∘”. For the same molecule, in assay [2], the “antibacterial effect of mixing with 1,2-octanediol, judged from dual minimum inhibitory concentration diagram, P. aeruginosa” value was “∘”.
For the molecule `CC(C)=CCCC(C)CC=O` (stereo not drawn) [citronellal], the “antibacterial effect of mixing with 1,2-octanediol, judged from dual minimum inhibitory concentration diagram, C. albicans” value with Candida albicans IFO1594 is on record as “∘”. The “antibacterial effect of mixing with 1,2-octanediol, judged from dual minimum inhibitory concentration diagram, S. aureus” value in assay [1] is “∘”.
Regarding `CC(=O)OC(C)(C)C1CC=C(C)CC1` (stereo not drawn) [terpinyl acetate], the “antibacterial effect of mixing with 1,2-octanediol, judged from dual minimum inhibitory concentration diagram, C. albicans” value in the assay with Candida albicans IFO1594 was “∘”. Also, the “antibacterial effect of mixing with 1,2-octanediol, judged from dual minimum inhibitory concentration diagram, S. aureus” value in assay [1] is recorded as “∘”.
As for `Cc1ccc(C(C)C)c(O)c1` [Thymol], the “antibacterial effect of mixing with 1,2-octanediol, judged from dual minimum inhibitory concentration diagram, C. albicans” value in the assay on Candida albicans IFO1594 is given as “∘”. The “antibacterial effect of mixing with 1,2-octanediol, judged from dual minimum inhibitory concentration diagram, S. aureus” value in assay [1] is “∘”. Besides, the “antibacterial effect of mixing with 1,2-octanediol, judged from dual minimum inhibitory concentration diagram, P. aeruginosa” value in assay [2] is listed as “∘”.
Consider guaiac acetate [reference compound], for which, in assay [1], the “antibacterial effect of mixing with 1,2-octanediol, judged from dual minimum inhibitory concentration diagram, S. aureus” value is recorded as “∘”.
